This note sets out measurements from paper PMC5122774, “Cloning of Glycerophosphocholine Acyltransferase (GPCAT) from Fungi and Plants” (The Journal of Biological Chemistry, 2016).

Data set [1] has as its target T1, RcGPCAT (Ricinus communis, UniProt B9RK42).
T1 construct: gene GPC1
The data set can be described thus: radiometric acyltransferase assay, yeast microsomes. It counts as biochemical. To be noted: [14C]GPC 4 mM; pH 7.2 phosphate, 1% BSA, 30 °C.

Substrate in data set [2]: C[N+](C)(C)CCOP(=O)([O-])OC[C@H](O)CO
Described as above. It counts as biochemical, Saccharomyces cerevisiae. Particulars: 18:1-CoA as acyl donor, pH 7.2 phosphate, 1% BSA, 30 °C, labelled compound.

T1 sequence (B9RK42 whole entry, looked up): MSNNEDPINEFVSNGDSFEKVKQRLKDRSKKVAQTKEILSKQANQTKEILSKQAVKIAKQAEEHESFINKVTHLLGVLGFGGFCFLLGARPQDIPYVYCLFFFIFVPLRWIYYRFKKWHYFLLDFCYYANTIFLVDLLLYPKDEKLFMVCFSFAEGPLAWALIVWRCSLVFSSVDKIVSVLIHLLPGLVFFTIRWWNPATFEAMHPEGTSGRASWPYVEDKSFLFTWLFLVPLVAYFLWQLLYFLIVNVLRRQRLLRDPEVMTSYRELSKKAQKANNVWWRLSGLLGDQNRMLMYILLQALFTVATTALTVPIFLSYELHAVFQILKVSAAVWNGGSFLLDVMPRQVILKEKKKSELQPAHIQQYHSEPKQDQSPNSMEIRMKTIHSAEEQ

Take `CCCCCC[C@@H](O)C/C=C\CCCCCCCC(=O)SCCNC(=O)CCNC(=O)[C@H](O)C(C)(C)COP(=O)(O)OP(=O)(O)OC[C@H]1O[C@@H](n2cnc3c(N)ncnc32)[C@H](O)[C@@H]1OP(=O)(O)O` [ricinoleoyl-CoA]: the “radiometric acyltransferase assay, yeast microsomes” value in data set [1] is listed as “the castor GPCAT accepted all of the acyl-CoAs tested, including ricinoleoyl-CoA”.

B1: ScGPCAT (Gpc1p) (Saccharomyces cerevisiae S288C) (protein)
chain: MYKLDNNDIDDETNNSVSLTSLLEFLDPIASKVVSKYYHGSHLSKAEQKLRNFEGFRRRKPHHEHDSHHPHHLNRSRSFLQLEDFKVRALQRIRNLDKPLDSIFFKNSSRLEKAFYPFTLFNIFFIGFLMGRFPEWFHVYYTILFFVLMPIRFYTYYKTKNHYFLADFCYFVNMLCLLFIWIFPYSYSLFQSCFAFTFGTLCFAVITWRNSLVIHSIDKTTSCFIHIIPPCVMYVIYHGLPLEYKIERFPGAIIQSELDIKKNILWTSLYYLVWQSLYHYFITLKKSSKIKSGERMTSFEYLTTHQFKNFWAVKLRSPWPMIIYTLSQYFYQLFTMLLCGIWIRYKLAAALFLTIVFLWASHNGATYYIDHYGKNFEKEVDRLRLEVENLQQKLQPDSDAVISDASVNDKDYLNVNRDEDFDDSSSVSSKSD
notes: full-length, 52 kDa, eight predicted TM helices; pYES-DEST52 (GAL1 promoter) in yeast ale1Δ gpc1Δ, microsomal membranes
A word on the Km: it is the concentration of substrate that gives half-maximal velocity. As for B1, the Michaelis constant (Km) in data set [2] stood at 450 µM.
